EC50 data for 27 molecules are collected here from patent US11845752B2, “Substituted imidazo[1,5-a]pyrazines for the treatment of hepatitis B” (ALIGOS THERAPEUTICS, INC., priority 2020, dated 2023).

The first assay concerns HBV. In words: HBV-DNA antiviral assay using HepG2.117 cells (intracellular HBV DNA by qPCR). Type of assay: cell-based, HBV genotype D. As to conditions: HBV DNA inhibition, 3 days incubation, read-out: EC50. The essentials:
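Read-outs: cell-lysate HBV DNA copies by qPCR (interpolated from gBlock standard) and parallel cellular ATP luminescence for CC50, both normalised to 2% DMSO controls and fitted by non-linear regression. HepG2.117 Tet-off genotype D HBV cells, induced by doxycycline removal, exposed 3 days to 4-fold serial dilutions.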
As to `O=C(NCc1ccccc1-c1ncccn1)c1c2n(c(=O)n1-c1ccc(OC3CC3)cc1)CC(CN1CCOCC1)N(C(=O)c1ccc(Br)c(C(F)(F)F)c1)C2` (single isomer, unassigned) [Compound 132b], the EC50 was 500 to 5000 nM. Still for that read-out and setting: to `CC1Cn2c(c(C(=O)NCc3ccccc3-c3cccc(N)n3)n(-c3ccc(OC4CC4)cc3)c2=O)CN1C(=O)c1ccc(Br)c(Cl)c1` (single isomer, unassigned) [Compound 23b] belongs less than 50 nM.

Regarding `CC1Cn2c(c(C(=O)NCc3ccccc3-c3cccnn3)n(-c3ccc(OC[C@@H](C)O)cc3)c2=O)CN1C(=O)c1ccc(Br)c(C(F)(F)F)c1` (single isomer, unassigned) [Compound 56a], the EC50 was 500 to 5000 nM.

`CC1Cn2c(c(C(=O)NCc3ccccc3-c3nccc(N)n3)n(-c3ccc(OC4CC4)cc3)c2=O)CN1C(=O)c1ccc(Br)c(C(F)(F)F)c1` (single isomer, unassigned) [Compound 29b]: the EC50 was less than 50 nM. Still for that read-out and setting: to `Cc1nnc(-c2ccccc2CNC(=O)c2c3n(c(=O)n2-c2ccc4oc(C)nc4c2)CC(C)N(C(=O)c2ccc(Br)c(C(F)(F)F)c2)C3)o1` (single isomer, unassigned) [Compound 54b] belongs 50 to 500 nM. On the same count and under the same terms, to `CC1Cn2c(c(C(=O)NCc3ccccc3-c3cccnn3)n(-c3ccc(OC[C@@H](C)O)cc3)c2=O)CN1C(=O)c1ccc(Br)c(C(F)(F)F)c1` (single isomer, unassigned) [Compound 56b] belongs 50 to 500 nM; to `CC1(O)CCN(c2ccc(-n3c(C(=O)NCc4ccccc4)c4n(c3=O)CCN(C(=O)c3ccc(Br)c(Cl)c3)C4)cc2)C1` (single isomer, unassigned) [Compound 115b], 50 to 500 nM. `COc1cnn(-c2ccccc2CNC(=O)c2c3n(c(=O)n2-c2ccc(OC4CC4)cc2)CC(C)N(C(=O)c2ccc(Br)c(Cl)c2)C3)c1` (single isomer, unassigned) [Compound 17b, 7-(4-bromo-3-chloro-benzoyl)-2-[4-(cyclopropoxy)phenyl]-N-[[2-(4-methoxypyrazol-1-yl)phenyl]methyl]-6-methyl-3-oxo-6,8-dihydro-5H-imidazo[1,5-a]pyrazine-1-carboxamide]: the EC50 is less than 50 nM. Regarding `CC1Cn2c(c(C(=O)NCc3ccccc3-c3cccnn3)n(-c3ccc(N4CC5(CN(C)C5)C4)cc3)c2=O)CN1C(=O)c1ccc(Br)c(C(F)(F)F)c1` (single isomer, unassigned) [Compound 76b], the EC50 is 500 to 5000 nM.

Consider `CC1Cn2c(c(C(=O)NCc3ccccc3-c3ncccn3)n(-c3ccc4c(cnn4C[C@@H](C)O)c3)c2=O)CN1C(=O)c1ccc(Br)c(C(F)(F)F)c1` (stereo in doubt) [Compound 91b, (6S*)-7-[4-bromo-3-(trifluoromethyl)benzoyl]-2-{1-[(2R)-2-hydroxypropyl]indazol-5-yl}-6-methyl-3-oxo-N-{[2-(pyrimidin-2-yl)phenyl]methyl}-5H,6H,8H-imidazo[1,5-a]pyrazine-1-carboxamide], for which the EC50 lay in the range of 50 to 500 nM.

For `CC1Cn2c(c(C(=O)NCc3c(F)cccc3-n3cccn3)n(-c3ccc(OC4CC4)cc3)c2=O)CN1C(=O)c1ccc(Br)c(Cl)c1` (single isomer, unassigned) [Compound 24b], the EC50 was less than 50 nM. `CC1Cn2c(c(C(=O)NCc3ccccc3-c3nccc(C(F)(F)F)n3)n(-c3ccc(N4CC5(CN(C)C5)C4)cc3)c2=O)CN1C(=O)c1ccc(Br)c(C(F)(F)F)c1` (single isomer, unassigned) [Compound 98a]: the EC50 fell in the range of 50 to 500 nM.

Staying with this assay, now noted: Hepatitis B virus, HepG2.117, 72 h, HBV DNA inhibition, 3 days incubation, read-out: EC50.
For the molecule `COc1cnn(-c2ccccc2CNC(=O)c2c3n(c(=O)n2-c2ccc(OC4CC4)cc2)CC(C)N(C(=O)c2ccc(Br)c(Cl)c2)C3)c1` (single isomer, unassigned) [Compound 17a, 7-(4-bromo-3-chloro-benzoyl)-2-[4-(cyclopropoxy)phenyl]-N-[[2-(4-methoxypyrazol-1-yl)phenyl]methyl]-6-methyl-3-oxo-6,8-dihydro-5H-imidazo[1,5-a]pyrazine-1-carboxamide], the EC50 lay within 50 to 500 nM. In the case of `CC1Cn2c(c(C(=O)NCc3ccccc3-c3nccc(N)n3)n(-c3ccc(OC4CC4)cc3)c2=O)CN1C(=O)c1ccc(Br)c(Cl)c1` (single isomer, unassigned) [Compound 30a], the EC50 was 50 to 500 nM. The same measure, in the same setting: the result for `C[C@H](O)COc1ccc(-n2c(C(=O)NCc3ccccc3-c3ccncn3)c3n(c2=O)C[C@H](C)N(C(=O)c2ccc(Br)c(C(F)(F)F)c2)C3)cc1` (mixture of isomers) [Compound 58b, (6SR)-7-[4-bromo-3-(trifluoromethyl)benzoyl]-2-[4-[(2S)-2-hydroxypropoxy]phenyl]-6-methyl-3-oxo-N-[(2-pyrimidin-4-ylphenyl)methyl]-6,8-dihydro-5H-imidazo[1,5-a]pyrazine-1-carboxamide] reads less than 50 nM. In the case of `C[C@H]1Cn2c(c(C(=O)NCc3ccccc3-c3ccccn3)n(-c3ccc(OC[C@H](O)C(F)(F)F)cc3)c2=O)CN1C(=O)c1ccc(Br)c(C(F)(F)F)c1` (mixture of isomers) [Compound 69b, (6SR)-7-[4-bromo-3-(trifluoromethyl)benzoyl]-6-methyl-3-oxo-N-[[2-(2-pyridyl)phenyl]methyl]-2-[4-[(2S)-3,3,3-trifluoro-2-hydroxy-propoxy]phenyl]-6,8-dihydro-5H-imidazo[1,5-a]pyrazine-1-carboxamide], the EC50 was 50 to 500 nM. On the same count and under the same terms, the result for `C[C@H]1Cn2c(c(C(=O)NCc3ccccc3-c3ccncn3)n(-c3ccc(OC[C@](C)(O)C(F)(F)F)cc3)c2=O)CN1C(=O)c1ccc(Br)c(C(F)(F)F)c1` (stereo in doubt) [Compound 83b, rac-(6S)-7-[4-bromo-3-(trifluoromethyl)benzoyl]-6-methyl-3-oxo-N-[(2-pyrimidin-4-ylphenyl)methyl]-2-[4-[rac-(2S)-3,3,3-trifluoro-2-hydroxy-2-methyl-propoxy]phenyl]-6,8-dihydro-5H-imidazo[1,5-a]pyrazine-1-carboxamide] reads 50 to 500 nM; that for `CC1Cn2c(c(C(=O)NCc3ccccc3-c3cccnn3)n(-c3ccc(OCC(C)(O)C(F)(F)F)cc3)c2=O)CN1C(=O)c1ccc(Br)c(C(F)(F)F)c1` (stereo not drawn) [Compound 85a, 7-(4-bromo-3-(trifluoromethyl)benzoyl)-6-methyl-3-oxo-N-(2-(pyridazin-3-yl)benzyl)-2-(4-(3,3,3-trifluoro-2-hydroxy-2-methylpropoxy)phenyl)-2,3,5,6,7,8-hexahydroimidazo[1,5-a]pyrazine-1-carboxamide], 50 to 500 nM.

In the case of `C[C@H]1Cn2c(c(C(=O)NCc3ccccc3-c3ncccn3)n(-c3ccc(OC[C@H](O)C(F)(F)F)cc3)c2=O)CN1C(=O)c1ccc(Br)c(C(F)(F)F)c1` (mixture of isomers) [Compound 75b, (6SR)-7-[4-bromo-3-(trifluoromethyl)benzoyl]-6-methyl-3-oxo-N-[(2-pyrimidin-2-ylphenyl)methyl]-2-[4-[(2S)-3,3,3-trifluoro-2-hydroxy-propoxy]phenyl]-6,8-dihydro-5H-imidazo[1,5-a]pyrazine-1-carboxamide], the EC50 is 50 to 500 nM. On the same count and under the same terms, to `C[C@H](O)COc1ccc(-n2c(C(=O)NCc3ccccc3-c3ccccn3)c3n(c2=O)C[C@H](C)N(C(=O)c2ccc(Br)c(C(F)(F)F)c2)C3)cc1` (mixture of isomers) [Compound 61b, (6SR)-7-[4-bromo-3-(trifluoromethyl)benzoyl]-2-[4-[(2S)-2-hydroxypropoxy]phenyl]-6-methyl-3-oxo-N-[[2-(2-pyridyl)phenyl]methyl]-6,8-dihydro-5H-imidazo[1,5-a]pyrazine-1-carboxamide] belongs less than 50 nM. On the same count and under the same terms, to `O=C(NCc1ccccc1)c1c2n(c(=O)n1-c1ccc(OC3CC(O)C3)cc1)CCN(C(=O)c1ccc(Br)c(Cl)c1)C2` (stereo not drawn) [Compound 129, N-benzyl-7-(4-bromo-3-chloro-benzoyl)-2-[4-(3-hydroxycyclobutoxy)phenyl]-3-oxo-6,8-dihydro-5H-imidazo[1,5-a]pyrazine-1-carboxamide] belongs 50 to 500 nM; to `CC1Cn2c(c(C(=O)NCc3ccccc3-c3ccncn3)n(-c3ccc(N4CCO[C@H](C(F)(F)F)C4)cc3)c2=O)CN1C(=O)c1ccc(Br)c(C(F)(F)F)c1` (mixture of isomers) [Compound 52a, rac-(6S)-7-[4-bromo-3-(trifluoromethyl)benzoyl]-6-methyl-3-oxo-N-[(2-pyrimidin-4-ylphenyl)methyl]-2-[4-[(2S)-2-(trifluoromethyl)morpholin-4-yl]phenyl]-6,8-dihydro-5H-imidazo[1,5-a]pyrazine-1-carboxamide], 50 to 500 nM; to `CC1Cn2c(c(C(=O)NCc3ccccc3-n3ccc(C(F)(F)F)n3)n(-c3ccc(N4CC5(CN(C)C5)C4)cc3)c2=O)CN1C(=O)c1ccc(Br)c(C(F)(F)F)c1` (single isomer, unassigned) [Compound 110a], 50 to 500 nM. Same read-out and setting: the result for `C[C@H]1Cn2c(c(C(=O)NCc3ccccc3-c3ccncn3)n(-c3ccc(OC[C@@H](O)C(F)(F)F)cc3)c2=O)CN1C(=O)c1ccc(Br)c(C(F)(F)F)c1` (stereo in doubt) [Compound 62b] reads 50 to 500 nM; that for `CC1Cn2c(c(C(=O)NCc3ccccc3-c3ccncn3)n(-c3ccc(N4CCC5(CC4)CN(C)C5)cc3)c2=O)CN1C(=O)c1ccc(Br)c(C(F)(F)F)c1` (single isomer, unassigned) [Compound 80a], 50 to 500 nM; that for `CC1Cn2c(c(C(=O)NCc3ccccc3-c3ncccn3)n(-c3ccc4oncc4c3)c2=O)CN1C(=O)c1ccc(Br)c(C(F)(F)F)c1` (single isomer, unassigned) [Compound 108a], 500 to 5000 nM. For the molecule `CC1(O)CCN(c2ccc(-n3c(C(=O)NCc4ccccc4)c4n(c3=O)CCN(C(=O)c3ccc(Br)c(Cl)c3)C4)cc2)C1` (single isomer, unassigned) [Compound 115a], the EC50 fell in the range of 50 to 500 nM.
